Earlier results in patent publication US11865247B2, “Inhalers and related methods” (Norton (Waterford) Limited, priority 2017, dated 2024).

FCC(F)(F)F [HFA134a, 1,1,1,2-tetrafluoroethane]
surface tension (as liquid at 25° C.): about 8 mN/m | vapor pressure (at 20° C.): 572 kpa
